From patent US20260265690A1, “Epithelial Stem Cells and Production and Uses thereof” (Stemson Therapeutics Corp., priority 2022, published 2026)

Tests used:
Type in all cases: cell-based, human
hiPSC-EPSCs = assay: Colony formation assay (CFA) on 3T3 fibroblast feeders; details: small molecules added to expansion medium at passage 4; 2.5 μM CHIR99021, 1 μM DMH-1, 2.5 μM A-83-01; CFA at p7, 1K/well, 10 days
Description: FIGS. 2A-2D show characterization of hiPSC-EPSC in vitro. […] For CFA, different hiPSC-EPSC lines (EP61, EP112 and EP116) and control HF-KC were subcultured for 3 passages (p3) then plated on 3T3 fibroblast feeders at 1K/well and incubated for additional 10 days, then fixed and stained with Crystal violet. […] Hair follicle derived keratinocytes (HFKC) are used as reference cells. […] Ns: p>0.05; *: p<0.05; ** p<0.01; *** p<0.001; ****: p<0.0001. […] Note nuclear localization of 3-Cat, a hallmark of Wnt signaling activation in hiPSC-EPSC but not in HF-KC (arrows).
(§1) FIGS. 3A-3E show activation of Wnt signaling pathway via GSK3 inhibition enables long-term expansion of hiPSC-EPSC. […] The clonogenicity of hiPSC-EPSCs was diminishing as a result of serial passaging. […] For CFA, hiPSC-EPSCs were cultured for 7 weeks (p7) with or without small molecule inhibitors, then plated on 3T3 fibroblast feeders at 1K/well and incubated for additional 10 days, then fixed and stained with Crystal violet. The plates were scanned and analyzed using imaging software to determine the confluency. The confluency data from three experiments is summarized in the graph (right panel). […] The graph is showing the percentage of proliferating (Ki67+) hiPSC-EPSC over total nuclei (DAPI+). *: p<0.05. […] Data was analyzed using standard ddCt method and shown as mean±s.d. of the expression from three independent experiments. *: p<0.05; ****: p<0.01. […] Data are represented as a heatmap, where results from eight independent differentiation experiments were averaged and z-scores were calculated for each timepoint represented.
(§2) Despite EPSCs having substantial self-renewal capability in vivo, the prolonged expansion in vitro of EPSC isolated from various tissues has remained challenging. It is well documented that in conventional cultures, freshly isolated EPSCs rapidly lose their clonogenicity and stem cell marker expression signature. Inoue et al, Lab invest. 2009 August, 89(8):844-56; Ohyama et al., J Clin Invest. 2006 January, 116(1):249-60; Yang et al., Stem Cell Research & Therapy (2020) 11:303. […]

hiPSC-EPSC = assay: Ki67 immunofluorescent analysis of proliferating cells; details: hiPSC-EPSC treated with CHIR-99021 vs untreated cells
Description: as §1
Immunocytochemistry: Cells were cultured and imaged in 96 well plates. Briefly, media was aspirated, and wells rinsed once with PBS for 2 minutes. Cells were fixed with 4% formaldehyde for 10 minutes at RT, followed by two washes with PBS. […]

[1] = system: Wnt pathway genes LEF1, TCF4, LGR6 in hiPSC-EPSC; assay: qPCR gene expression analysis of Wnt signaling pathway genes; details: ddCt, hiPSC-EPSC treated with CHIR-99021
Description: as §1
as §2, with “invest.” for “invest. 2009 August, 89(8):844-56; Ohyama et al., J Clin Invest. 2006 January, 116(1):249-60; Yang et al., Stem Cell Research & Therapy (2020) 11:303.”

passage 4 hiPSC-EPSCs = assay: Bulk RNA-seq of HF bulge EPSC marker expression; details: CHIR-99021 vs DMSO
Description: FIGS. 3A-3E show activation of Wnt signaling pathway via GSK3 inhibition enables long-term expansion of hiPSC-EPSC. […] The clonogenicity of hiPSC-EPSCs was diminishing as a result of serial passaging. […] For CFA, hiPSC-EPSCs were cultured for 7 weeks (p7) with or without small molecule inhibitors, then plated on 3T3 fibroblast feeders at 1K/well and incubated for additional 10 days, then fixed and stained with Crystal violet. The plates were scanned and analyzed using imaging software to determine the confluency. The confluency data from three experiments is summarized in the graph (right panel). […] Data was analyzed using standard ddCt method and shown as mean±s.d. of the expression from three independent experiments. *: p<0.05; ****: p<0.01. […] Data are represented as a heatmap, where results from eight independent differentiation experiments were averaged and z-scores were calculated for each timepoint represented.
Bulk RNA-sequencing: RNA was extracted from each sample and quantified with Qubit. cDNA libraries were generated using the NEB library kit. All libraries were then quantified, pooled, and sequenced on Illumina platforms. Reads were first analyzed by fastQC and then trimmed for low-quality bases with Trimmomatic. Clean reads were then aligned to the human reference genome (GRCh38) with Ensembl gene annotation using STAR software. […]

[2] = system: HF organoids of hiPSC-EPSC with dermal papilla (DP) cells; assay: 3D hair follicle organoid assay (roundness/elongation score); details: 2.5 μM added to EPSC and organoid culture
Description: FIGS. 4A-4D show in vitro functional analysis of hiPSC-EPSC in 3D tissue constructs. […] Bottom panel illustrates an organoid development process of using an example of an organoid created by combining fluorescently labeled (red) dermal papilla (DP) cells with HF-KCs. […] Measurement is obtained with CYTATION™ 5 software. Each color represents a different cell combination, and each dot represents a single organoid. The percentage of elongated organoids was increased when hiPSC-EPSC were treated with CHIR-99021. […] Neonatal foreskin-derived keratinocytes (HFK) were used as a control. […]
The stable hiPSC-EPSC with features of HF bulge EPSC described above were investigated as to whether they were receptive to specific mesenchymal stimuli and capable of creating complex multilayered tissues. […] To quantitively assess the organoids elongation and provide an indicator of hiPSC-EPSC functionality in vitro, an automated computational image-based analysis was employed that calculates the roundness of the generated 3D structures, assigning values between 1 and 0, where 1 represents a perfectly round object and 0 a long shaped one. By plotting time-lapse values of roundness score in a graph, the ability of iPSC-EPSC cells to generate elongated structure in combination with DP cells (FIG. 4C) was quantified. […]

Compound | clonogenicity of hiPSC-EPSCs (hiPSC-EPSCs) | number of proliferating (Ki67+) cells (hiPSC-EPSC) | expression of Wnt pathway genes including LEF1, TCF4, and LGR6 [1] | expression of HF bulge EPSC markers including KRT15, CD59, TP63, ITGA6, DKK3, SOX9, and NFATC1 (passage 4 hiPSC-EPSCs) | percentage of elongated organoids [2]
Cc1cccc(-c2nn(C(=S)Nc3ccccc3)cc2-c2ccnc3ccccc23)n1 [A-83-01] | not BMP or TGF-β inhibitors, preserved clonogenicity |  |  |  | 
Cc1c[nH]c(-c2cnc(NCCNc3ccc(C#N)cn3)nc2-c2ccc(Cl)cc2Cl)n1 [CHIR-99021, 6-((2-((4-(2,4-Dichlorophenyl)-5-(4-methyl-1H-imidazol-2-yl)pyrimidin-2-yl)amino)ethyl)amino)nicotinonitrile] | preserved clonogenicity | significantly higher number of proliferating cells | upregulation | increased the expression | increased
CC(C)Oc1ccc(-c2cnc3c(-c4ccnc5ccccc45)cnn3c2)cc1 [DMH-1] | not BMP or TGF-β inhibitors, preserved clonogenicity |  |  |  | 
